{
  "source": "patent US4435591A",
  "about": "“Compound with analgesic, antiinflammatory and antipyretic activity, and pharmaceutical compositions therefrom” (Ausonia Farmaceutici s.r.l., priority 1982, dated 1984)",
  "key": {"[1]": {"tested_on": "Pleuritis caused by carrageenan in rats", "test": "Pleuritis caused by carrageenan in rats (Vinegar et al)", "assay_type": "in vivo", "conditions": "for Number of leucocytes × 1,000 / Number of leucocytes, % inhibition with respect to the controls: 100 mg/Kg oral"}, "[2]": {"tested_on": "Arthritis caused by the adjuvant of Freund in rats", "test": "Arthritis caused by the adjuvant in rats (Winter and Nuss)", "assay_type": "in vivo", "conditions": "100 mg/Kg/die oral", "from_the_text": "For the evaluation for the efficiency of the substance the following parameters have been considered: diameter of articulations, volume of the hind paws, hematological and hematochemical examination, weight of the suprarenal glands and thymus."}, "[3]": {"tested_on": "Hyperthermia caused by yeast", "test": "Antipyretic activity, hyperthermia caused by yeast in rats (Boissier and Simon)", "assay_type": "in vivo", "from_the_text": "The experiment has been carried out in rats in which the body temperature has been increased by means of yeast by the method according to J. R. Boissier and P. Simon (Therapie, 1962, 17, 1225). […] It is, however, necessary to keep in mind the difference in molecular weight between the two substances under examination."}, "[4]": {"tested_on": "subplantar edema caused by carrageenan in rats", "test": "Edema caused by carrageenan in rats (Winter et al)", "assay_type": "in vivo", "conditions": "oral, AFP 802 187 mg/Kg, ibuprofen 100 mg/Kg", "protocol": "The anti-inflammatory activity has been investigated by a series of tests using edema caused by carrageenan and kaolin pleuritis caused by carrageenan and arthritis caused by an adjuvant.\nThe plyethysmographic observations of the edema have been carried out every hour for a period of 7 hours after the induction of the edema."}, "[5]": {"tested_on": "Writhing caused by phenylquinone in mice", "test": "Writhing caused by phenylquinone in mice (Siegmung et al)", "assay_type": "in vivo", "from_the_text": "The analgesic activity of AFP 802 has been studied by means of the writhing test with phenylquinone in mice and by means of the test of Randall and Selitto in rats."}, "[6]": {"tested_on": "Edema caused by kaolin in rats", "test": "Edema caused by kaolin in rats (Coulon et al)", "conditions": "oral every 24 hours, 5 consecutive days, dose AFP 802 115, ibuprofen 60"}, "[7]": {"tested_on": "Test of Randall and Selitto, in rats", "test": "Test of Randall and Selitto in rats", "assay_type": "in vivo", "conditions": "100 mg/Kg oral", "protocol": "The analgesic activity of AFP 802 has been studied by means of the writhing test with phenylquinone in mice and by means of the test of Randall and Selitto in rats. Test of Randall and Selitto in rats. This test was carried out according to the method of L. Randall and J. Selitto reported in Arch. Int. Pharmacodyn., 1957 III, 409. […] The variations of pressure tolerated without variation in pain have been determined each hour, for 5 consecutive hours and the results are reported in Table 10."}},
  "data": [
    {"smiles": "CC(C)Cc1ccc(C(C)C(=O)O)cc1", "note": "(centres unmarked) [Ibuprofen, ibuprofen, reference compound]", "values": [
      {"measurement": "Number of leucocytes × 1,000", "setting": "[1]; 5 hours", "value": "4,499 × 1,000"},
      {"measurement": "Number of leucocytes, % inhibition with respect to the controls", "setting": "[1]; 5 hours", "value": 73.60, "unit": "%"},
      {"measurement": "effect in pleuritis (in words)", "setting": "[1]; 24 hours after the administration", "value": "practically inactive"},
      {"measurement": "Number of leucocytes × 1,000", "setting": "[1]; 24 hours", "value": "18,470 × 1,000"},
      {"measurement": "Number of leucocytes, % inhibition with respect to the controls", "setting": "[1]; 24 hours", "value": 0.92, "unit": "%"},
      {"measurement": "ALBUMIN (%)", "setting": "[2]", "value": "68.0 ± 2.0", "unit": "%"},
      {"measurement": "GLOBULIN (%) α1", "setting": "[2]", "value": "8.8 ± 1.07", "unit": "%"},
      {"measurement": "GLOBULIN (%) α2", "setting": "[2]", "value": "5.5 ± 0.34", "unit": "%"},
      {"measurement": "GLOBULIN (%) β1", "setting": "[2]", "value": "13.9 ± 0.45", "unit": "%"},
      {"measurement": "GLOBULIN (%) β2", "setting": "[2]", "value": "5.9 ± 0.43", "unit": "%"},
      {"measurement": "GLOBULIN (%) γ", "setting": "[2]", "value": "1.9 ± 0.13", "unit": "%"},
      {"measurement": "Hematocrit", "setting": "[2]", "value": "45.4 ± 1.04"},
      {"measurement": "Leucocytes", "setting": "[2]", "value": "7,946 ± 380.5 × mm^3"},
      {"measurement": "Red Cells", "setting": "[2]", "value": "5,265.300 ± 1.003 × mm^3"},
      {"measurement": "VES", "setting": "[2]", "value": "1.7 ± 0.9"},
      {"measurement": "Σ Diameter D + S, Area", "setting": "[2]; both paws, area under the curve of the increases", "value": "2,616.2"},
      {"measurement": "Σ Diameter D + S, % inhibition", "setting": "[2]; both paws", "value": 70.92, "unit": "%"},
      {"measurement": "Suprarenal", "setting": "[2]; weight", "value": "65.6 ± 3.4", "unit": "mg"},
      {"measurement": "Thymus", "setting": "[2]; weight", "value": "375.0 ± 24.3", "unit": "mg"},
      {"measurement": "% inhibition with respect to control", "setting": "[3]; 100 mg/Kg oral", "value": 121.24, "unit": "%"},
      {"measurement": "Rectal temperature", "setting": "[3]; 1 hour after treatment, 100 mg/Kg oral", "value": 37.71, "unit": "°C"},
      {"measurement": "Rectal temperature", "setting": "[3]; 2 hours after treatment, 100 mg/Kg oral", "value": 37.43, "unit": "°C"},
      {"measurement": "Rectal temperature", "setting": "[3]; 3 hours after treatment, 100 mg/Kg oral", "value": 37.36, "unit": "°C"},
      {"measurement": "Rectal temperature", "setting": "[3]; 4 hours after treatment, 100 mg/Kg oral", "value": 36.87, "unit": "°C"},
      {"measurement": "Rectal temperature", "setting": "[3]; 5 hours after treatment, 100 mg/Kg oral", "value": 37.12, "unit": "°C"},
      {"measurement": "Rectal temperature", "setting": "[3]; Basal, 100 mg/Kg oral group", "value": 38.34, "unit": "°C"},
      {"measurement": "% inhibition vs control", "setting": "[4]; area", "value": 65.0, "unit": "%"},
      {"measurement": "Area Absolute Value", "setting": "[4]", "value": 102.8},
      {"measurement": "% inhibition with respect to the control", "setting": "[5]; 100 mg/Kg oral", "value": 78.6, "unit": "%"},
      {"measurement": "No. of Contorsions", "setting": "[5]; 100 mg/Kg oral", "value": 4.5},
      {"measurement": "% inhibition with respect to the control", "setting": "[5]; 200 mg/Kg oral", "value": 86.7, "unit": "%"},
      {"measurement": "No. of Contorsions", "setting": "[5]; 200 mg/Kg oral", "value": 2.8},
      {"measurement": "% inhibition with respect to the controls", "setting": "[6]; area", "value": 38.24, "unit": "%"},
      {"measurement": "Area (area under the curve of the increase of the diameter of the articulations)", "setting": "[6]", "value": 10799.5, "unit": "mm^2"},
      {"measurement": "% INHIBITION WITH RESPECT TO THE CONTROL, I", "setting": "[7]; area, inflamed paw", "value": 45.41, "unit": "%"},
      {"measurement": "% INHIBITION WITH RESPECT TO THE CONTROL, NI", "setting": "[7]; area, not inflamed paw", "value": 65.35, "unit": "%"},
      {"measurement": "AREA ABSOLUTE VALUE, I", "setting": "[7]; inflamed paw, area of the increase of the pressure tolerated", "value": "-58.6 ± 25.25"},
      {"measurement": "AREA ABSOLUTE VALUE, NI", "setting": "[7]; not inflamed paw, area of the increase of the pressure tolerated", "value": "-39.95 ± 33.48"}
    ]}
  ]
}
